Each compound was assayed against G-protein coupled estrogen receptor 1 (Homo sapiens, UniProt Q99527) (assay: Competitive Binding Assay).
Experimental: (§1) Competitive binding of estrogen to GPR30 and ER alpha were conducted using COS-7 cells transfected with GPR30-GFP or ER alpha-GFP and fluorescent estrogen, E2-Alexa633 labeled as a reporter.

Chain of G-protein coupled estrogen receptor 1 (Q99527 whole entry): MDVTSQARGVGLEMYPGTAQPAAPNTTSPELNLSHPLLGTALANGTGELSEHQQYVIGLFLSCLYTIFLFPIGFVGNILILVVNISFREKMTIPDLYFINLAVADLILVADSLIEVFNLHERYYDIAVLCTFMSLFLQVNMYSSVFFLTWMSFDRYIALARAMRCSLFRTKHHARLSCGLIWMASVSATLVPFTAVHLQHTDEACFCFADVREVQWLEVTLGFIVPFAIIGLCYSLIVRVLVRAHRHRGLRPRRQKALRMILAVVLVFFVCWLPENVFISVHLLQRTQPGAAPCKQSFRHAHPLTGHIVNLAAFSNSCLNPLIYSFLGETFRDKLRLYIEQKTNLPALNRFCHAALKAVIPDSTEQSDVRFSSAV

Row | Ki | SMILES
1 | 0.025 µM | C[C@]12CCC3c4ccc(O)cc4CCC3C1CC[C@@]2(O)C#Cc1ccc(CN)cc1 (stereo partly drawn) [E2-NH3+]
2 | 0.016 µM | CC(C)(C)OC(=O)NCc1ccc(C#C[C@]2(O)CCC3C4CCc5cc(O)ccc5C4CC[C@@]32C)cc1 (stereo partly drawn) [E2-NB]
3 | 0.03 µM | C[C@]12CCC3c4ccc(O)cc4CCC3C1CC[C@@]2(O)C#Cc1cccc(C(=O)O)c1 (stereo partly drawn) [E2-COO-]
4 | 0.017 µM | C[C@]12CCC3c4ccc(O)cc4CCC3C1CC[C@@]2(O)C#Cc1ccc([N+](C)(C)C)cc1 (stereo partly drawn) [E2-NMe3+]

The compounds below were run against T1, Estrogen receptor (Homo sapiens, UniProt P03372) (assay: Competitive Binding Assay).
T1 sequence (P03372 whole entry): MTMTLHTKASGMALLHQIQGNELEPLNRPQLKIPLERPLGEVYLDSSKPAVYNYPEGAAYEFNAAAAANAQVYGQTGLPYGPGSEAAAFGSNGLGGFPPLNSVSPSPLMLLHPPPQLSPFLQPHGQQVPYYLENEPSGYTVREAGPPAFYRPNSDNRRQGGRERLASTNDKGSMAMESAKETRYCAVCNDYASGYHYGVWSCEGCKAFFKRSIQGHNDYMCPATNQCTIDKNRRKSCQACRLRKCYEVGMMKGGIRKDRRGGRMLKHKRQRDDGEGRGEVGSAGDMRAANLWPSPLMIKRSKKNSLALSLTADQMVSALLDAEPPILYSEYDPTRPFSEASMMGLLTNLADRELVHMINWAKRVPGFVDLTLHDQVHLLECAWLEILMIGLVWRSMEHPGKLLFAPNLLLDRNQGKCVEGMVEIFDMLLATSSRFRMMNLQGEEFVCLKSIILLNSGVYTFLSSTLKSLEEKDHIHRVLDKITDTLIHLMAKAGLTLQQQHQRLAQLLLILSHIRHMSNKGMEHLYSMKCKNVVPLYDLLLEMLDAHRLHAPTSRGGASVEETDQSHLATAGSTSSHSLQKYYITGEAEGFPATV
Experimental: as §1

Row | Ki | SMILES
5 | 0.0041 µM | C[C@]12CCC3c4ccc(O)cc4CCC3C1CC[C@@]2(O)C#Cc1ccc(CN)cc1 (stereo partly drawn) [E2-NH3+]
6 | 0.0027 µM | CC(C)(C)OC(=O)NCc1ccc(C#C[C@]2(O)CCC3C4CCc5cc(O)ccc5C4CC[C@@]32C)cc1 (stereo partly drawn) [E2-NB]
7 | 0.002 µM | C[C@]12CCC3c4ccc(O)cc4CCC3C1CC[C@@]2(O)C#Cc1cccc(C(=O)O)c1 (stereo partly drawn) [E2-COO-]
8 | 0.0014 µM | C[C@]12CCC3c4ccc(O)cc4CCC3C1CC[C@@]2(O)C#Cc1ccc([N+](C)(C)C)cc1 (stereo partly drawn) [E2-NMe3+]
